In the supplement of paper PMC10307832:

Tests used:
Experiment in all cases: relative viability (nuclei count vs DMSO), 5 days (fraction); higher = more cells survive
Trametinib + Tozasertib = compound: CC(=O)Nc1cccc(-n2c(=O)n(C3CC3)c(=O)c3c(Nc4ccc(I)cc4F)n(C)c(=O)c(C)c32)c1 [Trametinib] + Cc1cc(Nc2cc(N3CCN(C)CC3)nc(Sc3ccc(NC(=O)C4CC4)cc3)n2)n[nH]1 [Tozasertib] (partner 0.1 µM)
Summary of the method: (§1)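 Nuclei were stained with Hoechst during a one-step fixation (final 0.05% Triton X-100, 1% formaldehyde, 1 ug/ml Hoechst) carried out 5 days after dosing, then counted on 4× images. The cells, lung cancer lines in 1536-well plates, had been dosed by pin tool the day after seeding with one drug alone or a fixed anchor-drug dose plus five library-drug doses (not always all listed) in √10 steps. Relative viability is the nuclei count in treated wells divided by that in vehicle wells, and each value is the median of duplicate plates.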

Trametinib + Olaparib = compound: CC(=O)Nc1cccc(-n2c(=O)n(C3CC3)c(=O)c3c(Nc4ccc(I)cc4F)n(C)c(=O)c(C)c32)c1 [Trametinib] + O=C(c1cc(Cc2n[nH]c(=O)c3ccccc23)ccc1F)N1CCN(C(=O)C2CC2)CC1 [Olaparib] (partner 8 µM)
Summary of the method: as §1

[1] = compound: CN1C=C(C2=CC=CC=C21)/C=C\3/C4=C(C=CC=N4)NC3=O + CCNC(=O)c1noc(-c2cc(C(C)C)c(O)cc2O)c1-c1ccc(CN2CCOCC2)cc1 [Luminespib] (partner 0.01 µM)
Summary of the method: as §1

[2] = compound: CN1C=C(C2=CC=CC=C21)/C=C\3/C4=C(C=CC=N4)NC3=O + Cc1nc(Nc2ncc(C(=O)Nc3c(C)cccc3Cl)s2)cc(N2CCN(CCO)CC2)n1 [Dasatinib] (partner 0.075 µM)
Summary of the method: as §1

Cell Line	relative viability (Trametinib + Tozasertib; first compound 0.0025 µM)	relative viability (Trametinib + Tozasertib; first compound 0.007906 µM)	relative viability (Trametinib + Tozasertib; first compound 0.025 µM)	relative viability (Trametinib + Tozasertib; first compound 0.07906 µM)	relative viability (Trametinib + Tozasertib; first compound 0.25 µM)	relative viability (Trametinib + Olaparib; first compound 0.0025 µM)	relative viability (Trametinib + Olaparib; first compound 0.007906 µM)	relative viability (Trametinib + Olaparib; first compound 0.025 µM)	relative viability (Trametinib + Olaparib; first compound 0.07906 µM)	relative viability (Trametinib + Olaparib; first compound 0.25 µM)	relative viability ([1]; first compound 0.02 µM)	relative viability ([1]; first compound 0.06325 µM)	relative viability ([1]; first compound 0.6325 µM)	relative viability ([1]; first compound 2 µM)	relative viability ([2]; first compound 0.02 µM)	relative viability ([2]; first compound 0.06325 µM)	relative viability ([2]; first compound 0.6325 µM)	relative viability ([2]; first compound 2 µM)	relative viability ([1]; first compound 0.2 µM)	relative viability ([2]; first compound 0.2 µM)
A-427	0.217	0.159	0.158	0.166	0.173	0.748	0.828	0.729	0.671	0.524	0.849	0.902	1.08	1.01	0.696	0.664	0.644	0.86	–	–
BEN	0.461	0.497	0.458	0.602	0.476	1.15	1.04	0.995	1.01	1.02	0.286	0.394	0.357	0.281	0.263	0.275	0.259	0.314	–	–
NCI-H2347	0.509	0.33	0.176	0.154	0.185	0.535	0.383	0.372	0.321	0.316	–	0.288	0.339	0.569	–	0.296	0.302	0.938	0.352	0.222
LCLC-103H	0.495	0.451	0.417	0.406	0.35	0.723	0.638	0.655	0.593	0.581	0.933	0.809	1.07	1.17	0.516	0.355	0.417	0.478	0.934	0.481
NCI-H650	0.733	0.774	0.621	0.569	0.329	0.444	0.434	0.568	0.649	0.542	0.573	0.775	0.757	0.889	0.519	0.494	0.415	0.39	–	–
NCI-H1975	0.716	0.703	0.478	0.338	0.29	0.816	0.633	0.566	0.376	0.322	0.0911	0.261	0.338	0.206	0.382	0.38	0.279	0.239	0.187	0.333
NCI-H2126	0.784	0.694	0.523	0.653	0.576	0.801	0.822	0.742	0.753	0.615	1	0.875	0.907	0.932	0.548	0.534	0.545	0.432	0.852	0.547
NCI-H2087	0.189	0.166	0.111	0.12	0.108	0.463	0.379	0.249	0.123	0.18	0.173	0.175	0.151	0.154	0.868	0.843	0.824	0.877	0.197	0.838
